Results on 14 compounds are retold here after ChEMBL document CHEMBL3112448, “Selective COX-1 inhibition as a target of theranostic novel diarylisoxazoles” (Eur J Med Chem, 2014).

pIC50: −log10 of the molar value. Activity calls are given as the source filed them. The calls are words filed in the database; no cut-off is given here.

For the first experiment, the target named is Prostaglandin G/H synthase 1 (Homo sapiens, UniProt P23219). Put plainly: Inhibition of COX1 in human OVCAR3 cells using [14C]arachidonic acid as substrate preincubated for 30 mins before substrate addition by radioactivity scanning technique. It is filed as cell-based, OVCAR-3.
Chain of Prostaglandin G/H synthase 1 (P23219 whole entry): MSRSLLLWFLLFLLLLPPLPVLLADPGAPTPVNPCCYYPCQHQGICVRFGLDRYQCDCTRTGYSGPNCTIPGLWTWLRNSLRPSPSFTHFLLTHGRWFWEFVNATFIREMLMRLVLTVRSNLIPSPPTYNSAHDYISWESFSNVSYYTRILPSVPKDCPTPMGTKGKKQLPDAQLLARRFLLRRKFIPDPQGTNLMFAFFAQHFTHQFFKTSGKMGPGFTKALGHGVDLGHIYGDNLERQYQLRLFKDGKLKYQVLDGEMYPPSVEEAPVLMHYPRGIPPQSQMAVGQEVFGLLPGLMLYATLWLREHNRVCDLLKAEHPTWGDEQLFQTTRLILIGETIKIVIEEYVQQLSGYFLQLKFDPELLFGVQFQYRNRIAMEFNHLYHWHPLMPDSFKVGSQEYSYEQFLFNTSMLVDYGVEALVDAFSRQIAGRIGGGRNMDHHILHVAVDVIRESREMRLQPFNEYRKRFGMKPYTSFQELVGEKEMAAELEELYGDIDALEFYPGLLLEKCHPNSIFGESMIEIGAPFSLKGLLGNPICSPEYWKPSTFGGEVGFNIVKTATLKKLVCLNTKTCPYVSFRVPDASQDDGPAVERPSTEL
Details: not given
For the compound `Nc1onc(-c2ccc(Cl)o2)c1-c1ccccc1`, the pIC50 is 6.24.

A further experiment has as its target T1, Prostaglandin G/H synthase 1 (Ovis aries) (UniProt P05979).
T1 sequence (whole entry): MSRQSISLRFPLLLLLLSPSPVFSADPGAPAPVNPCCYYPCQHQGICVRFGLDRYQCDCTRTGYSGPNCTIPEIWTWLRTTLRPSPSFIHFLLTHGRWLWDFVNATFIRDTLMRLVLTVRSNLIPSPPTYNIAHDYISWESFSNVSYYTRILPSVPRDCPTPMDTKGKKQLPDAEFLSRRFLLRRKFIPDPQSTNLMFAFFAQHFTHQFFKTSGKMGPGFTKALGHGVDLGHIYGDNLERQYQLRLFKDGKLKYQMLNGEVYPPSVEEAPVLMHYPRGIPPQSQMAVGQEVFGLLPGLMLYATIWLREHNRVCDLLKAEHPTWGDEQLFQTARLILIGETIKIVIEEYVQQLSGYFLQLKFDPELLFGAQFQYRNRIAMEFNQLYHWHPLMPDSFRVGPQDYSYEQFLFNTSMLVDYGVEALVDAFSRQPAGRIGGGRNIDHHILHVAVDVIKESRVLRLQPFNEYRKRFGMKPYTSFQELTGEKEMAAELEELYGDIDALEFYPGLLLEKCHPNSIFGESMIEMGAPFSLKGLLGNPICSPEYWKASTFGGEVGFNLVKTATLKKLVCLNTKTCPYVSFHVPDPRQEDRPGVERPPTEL
The conditions noted are these: at 50 µM.
Description: Inhibition of ovine COX1 at 50 uM by peroxidase activity-based colorimetric assay
`Nc1onc(-c2ccc(Cl)o2)c1-c1ccccc1` registered an inhibition of 94%.

Turning to `O=C(O)Cc1onc(-c2ccc(Cl)o2)c1-c1ccccc1`, the inhibition came out at 32%.

With `Clc1ccc(-c2noc(CBr)c2-c2ccccc2)o1`, the inhibition turned out to be 35%.

`CC(=O)N(C(C)=O)c1onc(-c2ccc(Cl)o2)c1-c1ccccc1` came in with an inhibition of 25%.

For `COc1ccccc1-c1noc(C(F)(F)F)c1-c1ccccc1`, the inhibition was determined as 39%.

The compound `Cc1onc(-c2ccc(Cl)o2)c1-c1ccc(N)cc1` yielded an inhibition of 78%.

Regarding `Cc1onc(-c2ccc(Cl)o2)c1-c1ccccc1`, the inhibition was found to be 69%.

Turning to `Cc1onc(-c2ccc(Cl)o2)c1-c1ccc([N+](=O)[O-])cc1`, the inhibition result is “inactive”.

As for `CCCc1onc(-c2ccc(Cl)o2)c1-c1ccccc1`, the inhibition was 17%.

On to `CN(C)c1onc(-c2ccc(Cl)o2)c1-c1ccccc1`, for which the inhibition entry is “inactive”.

For `COC(=O)Cc1onc(-c2ccc(Cl)o2)c1-c1ccccc1`, the inhibition entry was “inactive”.

`COc1ccccc1-c1noc(C)c1-c1ccccc1` registered an inhibition of 61%.

Regarding `N#CCc1onc(-c2ccc(Cl)o2)c1-c1ccccc1`, the inhibition worked out at 12%.

In the case of `CCc1onc(-c2ccc(Cl)o2)c1-c1ccccc1`, the inhibition was found to be 55%.
